Results: article PMC9769880, “Diverse Sensory Repertoire of Paralogous Chemoreceptors Tlp2, Tlp3, and Tlp4 in Campylobacter jejuni” (Microbiology Spectrum, 2022)
Where two headings read alike, the source gives them in different places.

Assays:
Tlp4 [1] = assay type: cell-based, C. jejuni 11168-O; conditions: nutrient-depleted chemotaxis assay
Protocol: (§1) The biological relevance of the binding specificities of the Tlp2,3,4 cluster was assessed by examining chemotactic responses of C. jejuni 11168-O tlp2, tlp3, and tlp4 wild-type (WT) and mutant strains using a nutrient-depleted chemotaxis assay. All ligands, with the exception of lysine and cysteine, interacted with Tlp2 and Tlp4 as attractants (Table 1), showing an ~1- to ~2-log decrease (P < 0.05) in migration toward the ligand compared to the WT strain.
(§2) Chemotaxis assays—the nutrient-depleted chemotaxis assay and the modified hard agar plug assay (tHAP)—were performed as previously described ([11], [34]). The chemotactic responses of all isogenic strains were compared to that of the C. jejuni 11168-O wild-type strain to distinguish between chemoattractants and chemorepellents. For the nutrient-depleted chemotaxis and modified hard agar plug (tHAP) assays, all differences were calculated as changes on a log10 scale. Controls were provided by using nonmotile (C. jejuni 81116 flaAB) and nonchemotactic (C. jejuni NCTC 11168 cheY) mutants ([69]) and mucin as negative and positive controls ([10]).

Tlp3 [2] = assay type: cell-based, C. jejuni 11168-O
Protocol: as §1, §2

Tlp2 [3] = assay type: cell-based, C. jejuni 11168-O; conditions: nutrient-depleted chemotaxis assay
Protocol: as §1, §2

Tlp2 [4] = target: T1, Tlp2 (Campylobacter jejuni, UniProt Q0PBZ3); assay type: binding; conditions: yes/no binding
T1 sequence (Q0PBZ3 entry or part of it): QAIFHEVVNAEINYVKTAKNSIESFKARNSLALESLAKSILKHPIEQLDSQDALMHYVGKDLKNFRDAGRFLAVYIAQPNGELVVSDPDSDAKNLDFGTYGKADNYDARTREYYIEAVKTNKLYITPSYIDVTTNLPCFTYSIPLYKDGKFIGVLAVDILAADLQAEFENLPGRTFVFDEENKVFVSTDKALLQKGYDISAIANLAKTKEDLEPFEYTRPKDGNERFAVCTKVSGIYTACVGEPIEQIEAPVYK
Protocol: (§3) Glycan (>400 monosaccharides or complex glycans) and small molecule arrays containing amino acids and salts were performed as described previously by Day et al. ([67]). Briefly, 1 μg of purified recombinant protein was complexed with anti-His antibody (Cell Signaling Technology) and rabbit anti-mouse/goat anti-rabbit Alexa 555-IgG (Thermo Scientific) at a molar ratio of 1:0.5:0.25 and then incubated on the array for […] in phosphate-buffered saline (PBS). The array slides were scanned at 488/520 nm and analyzed using InnoScan 1100 with MAPIX software. All arrays were performed in triplicate with a total of 12 data points for each glycan tested; the complete data set and MIRAGE (i.e., minimum information regarding a glycomics experiment) results are shown in Tables S3 and S8.
(§4) Table S8 - Supplementary glycan microarray document based on M IRAGE guidelines. D O I:
(§5) Classification Guidelines
(§6) 1. Sample: Glycan Binding Sample
(§7) Origin: Helicobacter pylori SS1; produced as a recombinant His - tagged protein in E.
(§8) The preparation of Tlp2,3, and 4 is explained in the Materials and Methods section:
(§9) Expression and purification of the periplasmic domain of Tlp2,3, and 4.
(§10) Sample Sample is a His Tagged protein containing only the periplasmic receptor domain of the modifications full length Tlp2,3, and 4transmembrane protein.
(§11) Please see Materials and Methods: Tlps 2/3/4 bind to a range of ligands, including […]
(§12) Proteins were complexed with mouse anti- his antibody, with secondary and tertiary AlexaFluor555 antibodies (rabbit anti-mouse, goat anti-rabbit) at a molar ratio of 4:2:1.
(§13) The protein/antibody complex was incubated on ice for 10 mins prior to placing on the Assay protocol array. Arrays were performed with 1 µg of complexed protein incubated on the array for 20 min. Arrays were then washed 3 times in Array PBS (PBS + 2mM MgCl2 + 2mM CaCl2) then dried by centrifugation for 3 min at 300 x g . Scanning was performed us ing an Innopsys InnoScan 1100AL and analyzed using Mapix (Innopsys). Yes/no binding was determined by six positive replicate spots in three replicate experiments. Positive […]
(§14) Glycan Glycans in this study are listed in Table S2 and is a published library in doi:
(§15) Glycans were prepared in one of two ways for printing:
(§16) Glycan 1. Glycans (with IDs in number/letter format; e.g. 1A, 4C, 7K) were sourced modifications commercially from Dextra Laboratories, Elicityl and Carbosythn and were made into glycoamines using the protocol published in Day et al 2009 (doi:
(§17) Glycan arrays: We only use glycan arrays as a yes/no binding tool. Due to this we look only at binding that is unambiguously above background vs lack of binding above background. Average background + 3x standard deviation of the background of 20 sets of 4 spots of DMF:DMSO only spots is applied to determine if binding observed is […]
(§18) Only spots with values equal to or greater than this value were considered as binding from data of any tested slide. These values are slide […]
(§19) Data Small molecule arrays: We only use amino acid arrays as a yes/no binding tool. Due interpretation to this we look only at binding that is unambiguously above background vs lack of binding above background. Average background + 3x standard deviation of the background of 6 spots of PBS + 2% glycerol only spots is applied to determine if […]
(§20) Only spots with values equal to or greater than this value were considered as binding from data of any tested slide. These values are slide dependent. […]

Tlp4 [5] = target: T2, Tlp4 (Campylobacter jejuni, UniProt Q0PBP3); assay type: binding; conditions: yes/no binding
T2 sequence (Q0PBP3 entry or part of it): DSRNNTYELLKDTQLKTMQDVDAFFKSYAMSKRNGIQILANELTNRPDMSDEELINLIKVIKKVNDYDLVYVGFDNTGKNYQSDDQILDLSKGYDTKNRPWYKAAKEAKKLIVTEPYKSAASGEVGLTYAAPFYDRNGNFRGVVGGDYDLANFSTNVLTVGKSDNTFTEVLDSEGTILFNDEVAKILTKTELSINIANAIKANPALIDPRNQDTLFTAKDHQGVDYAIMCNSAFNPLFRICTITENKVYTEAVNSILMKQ
Protocol: as §3, §4, §5, §6, §7, §8, §9, §10, §11, §12, §13, §14, §15, §16, §17, §18, §19, §20

Tlp3^LBD K149A [6] = target: T3, Tlp3^LBD K149A (Campylobacter jejuni, UniProt Q0P864, K149A); conditions: compared to WT Tlp3^LBD, P < 0.05
T3 sequence (Q0P864 41-290 K149A): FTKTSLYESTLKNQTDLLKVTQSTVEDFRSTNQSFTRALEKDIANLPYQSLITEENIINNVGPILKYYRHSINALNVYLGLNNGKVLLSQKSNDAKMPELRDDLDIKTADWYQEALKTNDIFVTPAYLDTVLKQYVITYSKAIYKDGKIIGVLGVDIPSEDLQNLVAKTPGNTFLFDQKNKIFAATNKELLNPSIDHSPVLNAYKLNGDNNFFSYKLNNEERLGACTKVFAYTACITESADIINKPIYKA

Tlp3^LBD D169A [7] = target: T4, Tlp3^LBD D169A (Campylobacter jejuni, UniProt Q0P864, D169A); conditions: compared to WT Tlp3^LBD, P < 0.05
T4 sequence (Q0P864 41-290 D169A): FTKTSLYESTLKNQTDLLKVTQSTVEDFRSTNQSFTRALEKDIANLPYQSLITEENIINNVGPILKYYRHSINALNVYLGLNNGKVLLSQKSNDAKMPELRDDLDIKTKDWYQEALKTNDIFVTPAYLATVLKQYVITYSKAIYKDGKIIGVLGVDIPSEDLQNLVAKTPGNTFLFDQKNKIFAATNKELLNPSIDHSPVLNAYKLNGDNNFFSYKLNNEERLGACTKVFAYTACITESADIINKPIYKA

Tlp3 [8] = target: T5, Tlp3 (Campylobacter jejuni, UniProt Q0P864); assay: Glycan/small molecule arrays with Tlp3; conditions: yes/no binding
T5 sequence (Q0P864 entry or part of it): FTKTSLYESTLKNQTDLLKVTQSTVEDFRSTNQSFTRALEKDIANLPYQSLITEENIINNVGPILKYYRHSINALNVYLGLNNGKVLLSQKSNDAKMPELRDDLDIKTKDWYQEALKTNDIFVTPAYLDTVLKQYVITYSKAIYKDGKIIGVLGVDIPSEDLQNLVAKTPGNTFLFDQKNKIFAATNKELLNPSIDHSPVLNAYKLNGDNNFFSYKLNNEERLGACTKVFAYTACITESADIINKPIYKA
Protocol: as §3, §4, §5, §6, §7, §8, §9, §10, §11, §12, §13, §14, §15, §16, §17, §18, §19, §20

Tlp2 [9] = target: T1, Tlp2; assay: biochemical; assay type: binding; conditions: read-out: Tlp2 Affinity
Protocol: (§21) His-tagged proteins (Tlp2, -3, and -4) were prepared as previously described ([11]) DNA segments encoding the periplasmic sensory domains (33 to 286 amino acids) of Tlp2 and (38 to 297 amino acids) of Tlp4 were amplified (see Table S7), ligated into pGEM-T Easy (Promega) and subcloned into pET-19b (Novagen) (see Table S6). Recombinant proteins were expressed in E. coli BL21(DE3) using 1 mM IPTG (isopropyl-β-D-thiogalactopyranoside) and purified using His-select-nickel chromatography as described previously ([8], [11]). The purity of the proteins was confirmed by SDS-PAGE and Western blot analysis with anti-His antibodies (Bio-Rad). Protein concentrations were determined using a NanoDrop spectrophotometer (Thermo Fisher).
(§22) Surface plasmon resonance (SPR) experiments were performed as described previously ([10], [11]) with the following modifications. Briefly, purified proteins were diluted to 0.15 μM in sodium acetate (pH 4.0) and immobilized onto an active flow cell of a CM5 sensor chip with a flow rate of 5 μL/min for 7 min of contact time using a standard amine coupling protocol. Immobilized protein levels for all three proteins ranged from 6028.3 to 9779.3 response units (RU) providing a minimum expected response maximum (RMax) between 20 and 50 RU for the small molecules tested. […] All ligands were prepared in PBS (pH 7.2) and serially diluted from 0.2 to 0.0125 mM. A 10-min dissociation period was allocated after the introduction of each analyte. SPR experiments were performed in single-cycle kinetics mode using the BIAcore S200 biosensor system (Cytiva) at 25°C in PBS (pH 7.2) at a flow rate of 30 μL/min. The equilibrium dissociation constant (KD) for each analyte was determined using BIAcore S200 Evaluation software with a report point 4 s after the injection stop to account for the bulk transfer of the small molecule against a large amount of immobilized protein (as shown in Fig. S5).

Tlp4 [10] = target: T2, Tlp4; assay: biochemical; assay type: binding; conditions: read-out: Tlp4 Affinity
Protocol: as §21, §22

[11] = system: C. jejuni 11168-O tlp2, tlp3, and tlp4 mutant strains; assay type: cell-based; conditions: positive control
Tlp3 [12] = target: T5, Tlp3; assay: STD NMR spectroscopy of arginine in complex with Tlp3; assay type: binding; conditions: 283K, 600.13 MHz; H3/H3′ and H5/H5′
Protocol: STD NMR experiments were performed as previously described in ([10]). […] A control sample was prepared in an identical manner without the addition of Tlp3. All NMR experiments were performed using 3-mm NMR tubes on a Bruker Avance 600 MHz spectrometer equipped with a 5-mm TXI probe with triple-axis gradients at 283K without sample spinning. ^1H NMR spectra were acquired with 32 scans and a 2-s relaxation delay over a spectral width of 6,000 Hz. Solvent suppression of the residual HDO peak was achieved by using a continuous low-power presaturation pulse during the relaxation delay. For all STD NMR experiments, the protein was saturated at −0.5 ppm in the aliphatic region of the spectrum and off-resonance at 33 ppm with a cascade of 40 selective Gaussian-shaped pulses of 50-ms duration (50 dB), which correlates to a strength of 190 Hz. A 100-μs delay between each soft pulse was applied, resulting in a total saturation time of ~2 s 2 K scans were acquired per sample. Data were obtained with interspersed acquisition of pseudo-two-dimensional on-resonance and off-resonance spectra in order to minimize the effects of temperature and magnet instability. On- and off-resonance spectra were processed separately, and the final STD NMR spectrum was obtained by subtracting the individual on- and off-resonance spectra, resulting in low-subtraction artifacts.

Tlp3^LBD W151A [13] = target: T6, Tlp3^LBD W151A (Campylobacter jejuni, UniProt Q0P864, W151A); assay: biochemical
T6 sequence (Q0P864 41-290 W151A): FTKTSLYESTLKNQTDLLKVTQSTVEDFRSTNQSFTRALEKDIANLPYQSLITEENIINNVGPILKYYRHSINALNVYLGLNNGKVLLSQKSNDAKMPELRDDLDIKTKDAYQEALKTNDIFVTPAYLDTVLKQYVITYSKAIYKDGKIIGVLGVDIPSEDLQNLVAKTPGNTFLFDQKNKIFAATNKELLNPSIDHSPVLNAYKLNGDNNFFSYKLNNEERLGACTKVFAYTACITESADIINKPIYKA

Tlp3^LBD D170A = Tlp3^LBD D170A (Campylobacter jejuni, UniProt Q0P864); assay: biochemical
Tlp3^LBD D170A, sequence (Q0P864 41-290 T170A): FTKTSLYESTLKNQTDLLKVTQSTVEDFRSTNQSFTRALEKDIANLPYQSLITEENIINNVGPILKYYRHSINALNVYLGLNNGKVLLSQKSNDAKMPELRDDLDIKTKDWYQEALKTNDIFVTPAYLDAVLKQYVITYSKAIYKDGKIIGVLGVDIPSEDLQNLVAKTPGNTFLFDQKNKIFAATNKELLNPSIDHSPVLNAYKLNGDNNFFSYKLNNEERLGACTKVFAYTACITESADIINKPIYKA

Tlp3^LBD D169A [14] = target: T4, Tlp3^LBD D169A; assay: biochemical
Tlp3^LBD K149A [15] = target: T3, Tlp3^LBD K149A; assay: biochemical
Tlp3^LBD W151A [16] = target: T6, Tlp3^LBD W151A; conditions: compared to WT Tlp3^LBD, P < 0.05
Tlp3 [17] = target: T5, Tlp3; assay: biochemical; assay type: binding
Protocol: as §21, with “The purity of the proteins was confirmed by SDS-PAGE and Western blot analysis with anti-His antibodies (Bio-Rad).” left out
Surface plasmon resonance (SPR) experiments were performed as described previously ([10], [11]) with the following modifications. […] All ligands were prepared in PBS (pH 7.2) and serially diluted from 0.2 to 0.0125 mM. A 10-min dissociation period was allocated after the introduction of each analyte. SPR experiments were performed in single-cycle kinetics mode using the BIAcore S200 biosensor system (Cytiva) at 25°C in PBS (pH 7.2) at a flow rate of 30 μL/min. The equilibrium dissociation constant (KD) for each analyte was determined using BIAcore S200 Evaluation software with a report point 4 s after the injection stop to account for the bulk transfer of the small molecule against a large amount of immobilized protein (as shown in Fig. S5).

Tlp3^LBD D196A = Tlp3^LBD D196A (Campylobacter jejuni, UniProt Q0P864, D196A); assay: biochemical
Tlp3^LBD D196A, sequence (Q0P864 41-290 D196A): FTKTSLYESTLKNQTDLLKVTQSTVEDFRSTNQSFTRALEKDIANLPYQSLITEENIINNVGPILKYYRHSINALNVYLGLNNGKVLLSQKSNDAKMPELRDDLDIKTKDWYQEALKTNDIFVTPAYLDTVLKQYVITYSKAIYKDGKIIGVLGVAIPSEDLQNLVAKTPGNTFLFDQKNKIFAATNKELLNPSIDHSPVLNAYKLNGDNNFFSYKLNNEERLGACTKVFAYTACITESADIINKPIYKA

[18] = SPR KD, mean ± SD, NB = no binding

## OC[C@H]1OC(O)[C@@H](O)[C@@H](O)[C@@H]1O (some centres unmarked) [Mannose]
Tlp4 [1]
  chemotactic response via Tlp4: attractants
Tlp3 [2]; chemotaxis of mutant compared to WT strain
  Tlp3 CR (chemoresponse): R
Tlp3 [2]; nutrient-depleted chemotaxis assay
  chemotactic response via Tlp3: repellents
Tlp2 [3]
  chemotactic response via Tlp2: attractants
Tlp2 [4]
  binding to Tlp2 on glycan/small molecule array: interacted
Tlp4 [5]
  binding to Tlp4 on glycan/small molecule array: interacted
Tlp3^LBD K149A [6]
  reduction in the affinity of Tlp3^LBD, substitution K149A: 2 fold
Tlp3^LBD D169A [7]
  reduction in the affinity of Tlp3^LBD, substitution D169A: 2 fold
Tlp3 [8]
  binding to Tlp3 on glycan/small molecule array: interacted
Tlp2 [9]; [18]
  Kd: 12.9 ± 1.8 µM
Tlp4 [10]; [18]
  Kd: 7.8 ± 1 µM

## mucin
[11]
  migration toward control ligand in mutants: not affected

## N=C(N)NCCC[C@H](N)C(=O)O [Arginine]
Tlp3 [2]
  Tlp3 CR (chemoresponse): R
Tlp3 [12]
  saturation transfer (STD NMR): Strong saturation transfer
Tlp2 [9]
  Kd: > 200 µM
Tlp4 [10]
  Kd: > 200 µM

## Cc1ncc(C[n+]2csc(CCO)c2C)c(N)n1 [Thiamine]
Tlp3 [2]
  Tlp3 CR (chemoresponse): R
Tlp3^LBD W151A [13]
  Kd: 73.3 ± 4.4 µM
Tlp3^LBD D170A
  Kd: 30.6 ± 7.2 µM
Tlp3^LBD D169A [14]
  Kd: 62 ± 8.5 µM
Tlp3^LBD K149A [15]
  Kd: 53.8 ± 6.6 µM
Tlp3^LBD W151A [16]
  reduction in the affinity/binding of Tlp3^LBD, substitution W151A: 1 fold
Tlp2 [9]
  Kd: > 200 µM
Tlp4 [10]
  Kd: > 200 µM
Tlp3 [17]
  Kd: 41.4 ± 5.9 µM
Tlp3^LBD D196A
  Kd: 36.8 ± 10 µM
